By IC50 is commonly meant the concentration that inhibits the measured activity by half. Usually Ki stands for the dissociation constant of the complex between target and ligand, obtained from inhibition or displacement.

13 compounds from ChEMBL document CHEMBL4261622, “Monosaccharide inhibitors targeting carbohydrate esterase family 4 de-N-acetylases” (Bioorg Med Chem, 2018) can be followed below.

The source made the active and inactive calls. The calls are words filed in the database; no cut-off is given here.

In assay [1] the target is T1, Poly-beta-1,6-N-acetyl-D-glucosamine N-deacetylase (Escherichia coli (strain K12), UniProt P75906).
T1 sequence (P75906 whole entry): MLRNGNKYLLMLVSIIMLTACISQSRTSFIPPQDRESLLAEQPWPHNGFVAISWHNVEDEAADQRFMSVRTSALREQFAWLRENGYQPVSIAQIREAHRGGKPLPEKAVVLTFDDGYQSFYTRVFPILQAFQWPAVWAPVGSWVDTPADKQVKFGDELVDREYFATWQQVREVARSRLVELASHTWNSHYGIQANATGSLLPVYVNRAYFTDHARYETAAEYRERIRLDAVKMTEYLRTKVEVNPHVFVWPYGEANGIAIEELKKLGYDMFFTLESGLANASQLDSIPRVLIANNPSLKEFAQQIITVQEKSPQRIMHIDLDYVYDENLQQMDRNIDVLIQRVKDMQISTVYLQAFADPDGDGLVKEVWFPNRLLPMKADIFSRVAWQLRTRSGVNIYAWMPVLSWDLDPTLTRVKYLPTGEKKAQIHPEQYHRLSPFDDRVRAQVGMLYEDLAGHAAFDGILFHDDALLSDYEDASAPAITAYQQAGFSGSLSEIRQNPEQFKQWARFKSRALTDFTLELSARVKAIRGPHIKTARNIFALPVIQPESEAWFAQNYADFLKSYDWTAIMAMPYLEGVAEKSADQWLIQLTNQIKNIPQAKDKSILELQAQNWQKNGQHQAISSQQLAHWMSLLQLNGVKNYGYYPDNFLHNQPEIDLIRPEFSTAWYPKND
Description: Inhibition of Escherichia coli PgaB expressed in Escherichia coli BL21 (DE3) cells transformed with pET28 plasmid coding for PgaB42-655 using acetoxymethyl-4-methylumbelliferone as substrate measured at 2 min intervals over 10 mins in presence of CoCl2 by fluorescence assay.

The target in assay [2] is T2, Peptidoglycan-N-acetylglucosamine deacetylase (Streptococcus pneumoniae (strain ATCC BAA-255 / R6), UniProt Q8DP63).
T2 sequence (Q8DP63 whole entry): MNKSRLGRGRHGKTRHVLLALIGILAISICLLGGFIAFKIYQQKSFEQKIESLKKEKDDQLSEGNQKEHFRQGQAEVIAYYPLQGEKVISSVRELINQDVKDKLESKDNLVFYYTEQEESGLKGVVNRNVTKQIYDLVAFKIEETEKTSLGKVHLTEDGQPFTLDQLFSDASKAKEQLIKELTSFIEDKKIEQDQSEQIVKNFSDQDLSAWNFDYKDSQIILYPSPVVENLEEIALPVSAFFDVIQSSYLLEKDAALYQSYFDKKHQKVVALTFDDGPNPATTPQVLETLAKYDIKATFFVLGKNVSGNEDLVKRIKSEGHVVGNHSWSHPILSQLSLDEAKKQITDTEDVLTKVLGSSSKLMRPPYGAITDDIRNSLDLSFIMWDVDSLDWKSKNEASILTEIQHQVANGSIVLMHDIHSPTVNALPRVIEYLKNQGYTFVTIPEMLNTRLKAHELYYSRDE
The experiment in a line: Inhibition of Streptococcus pneumoniae Pgda expressed in Escherichia coli BL21 (DE3) cells transformed with pET28bSpPgdA232-431 plasmid using acetoxymethyl-4-methylumbelliferone as substrate measured at 5 min intervals over 60 mins in presence of CoCl2 by fluorescence assay.

For assay [3], the target named is T3, Peptidoglycan-N-acetylglucosamine deacetylase (Streptococcus pneumoniae (strain ATCC BAA-255 / R6)) (UniProt Q8DP63).
T3 sequence (whole entry): T2 sequence (Q8DP63 whole entry)
Description: Substrate activity at Streptococcus pneumoniae Pgda at 5 mM in presence of CoCl2 or ZnCl2 by fluorescamine assay deacetylase assay.

Assay [4] has as its target T4, Poly-beta-1,6-N-acetyl-D-glucosamine N-deacetylase (Escherichia coli (strain K12)) (UniProt P75906).
T4 sequence (whole entry): T1 sequence (P75906 whole entry)
The experiment in a line: Substrate activity at Escherichia coli PgaB at 5 mM in presence of CoCl2 or ZnCl2 by fluorescamine assay deacetylase assay.

The target of assay [5] is T4, Poly-beta-1,6-N-acetyl-D-glucosamine N-deacetylase (Escherichia coli (strain K12)). The experiment in a line: Inhibition of Escherichia coli PgaB expressed in Escherichia coli BL21 (DE3) cells transformed with pET28 plasmid coding for PgaB42-655 at 10 mM using acetoxymethyl-4-methylumbelliferone as substrate measured at 2 min intervals over 10 mins in presence of CoCl2 by fluorescence assay.

Assay [6] deals with T3, Peptidoglycan-N-acetylglucosamine deacetylase (Streptococcus pneumoniae (strain ATCC BAA-255 / R6)). The experiment in a line: Inhibition of Streptococcus pneumoniae Pgda expressed in Escherichia coli BL21 (DE3) cells transformed with pET28bSpPgdA232-431 plasmid at 10 mM using acetoxymethyl-4-methylumbelliferone as substrate measured at 5 min intervals over 60 mins in presence of CoCl2 by fluorescence assay.

Assay [7] shares this target. The experiment in a line: Substrate activity at Streptococcus pneumoniae Pgda at 1 mM in presence of CoCl2 or ZnCl2 by fluorescamine assay deacetylase assay.
The target in assay [8] is T4, Poly-beta-1,6-N-acetyl-D-glucosamine N-deacetylase (Escherichia coli (strain K12)). Description: Substrate activity at Escherichia coli PgaB at 1 mM in presence of CoCl2 or ZnCl2 by fluorescamine assay deacetylase assay.
Assay [9] concerns the target T2, Peptidoglycan-N-acetylglucosamine deacetylase. The experiment in a line: Inhibition of Streptococcus pneumoniae Pgda expressed in Escherichia coli BL21 (DE3) cells transformed with pET28bSpPgdA232-431 plasmid using compound pre-incubated with 1Eq DTT and using acetoxymethyl-4-methylumbelliferone as substrate measured at 5 min intervals over 60 mins in presence of CoCl2 by fluorescence assay.

Assay [10] concerns the target T1, Poly-beta-1,6-N-acetyl-D-glucosamine N-deacetylase. The experiment in a line: Inhibition of Escherichia coli PgaB expressed in Escherichia coli BL21 (DE3) cells transformed with pET28 plasmid coding for PgaB42-655 using compound pre-incubated with 1Eq DTT and using acetoxymethyl-4-methylumbelliferone as substrate measured at 2 min intervals over 10 mins in presence of CoCl2 by fluorescence assay.

Assay [11] deals with T2, Peptidoglycan-N-acetylglucosamine deacetylase. Description: Inhibition of Streptococcus pneumoniae Pgda expressed in Escherichia coli BL21 (DE3) cells transformed with pET28bSpPgdA232-431 plasmid using compound pre-incubated with 1Eq DTT and using acetoxymethyl-4-methylumbelliferone as substrate measured at 5 min intervals over 60 mins in presence of ZnCl2 by fluorescence assay.

Assay [12] concerns the target T1, Poly-beta-1,6-N-acetyl-D-glucosamine N-deacetylase. Description: Inhibition of Escherichia coli PgaB expressed in Escherichia coli BL21 (DE3) cells transformed with pET28 plasmid coding for PgaB42-655 using compound pre-incubated with 1Eq DTT and using acetoxymethyl-4-methylumbelliferone as substrate measured at 2 min intervals over 10 mins in presence of ZnCl2 by fluorescence assay.

Assay [13] deals with T3, Peptidoglycan-N-acetylglucosamine deacetylase (Streptococcus pneumoniae (strain ATCC BAA-255 / R6)). Description: Inhibition of Streptococcus pneumoniae Pgda expressed in Escherichia coli BL21 (DE3) cells transformed with pET28bSpPgdA232-431 plasmid at 5 mM using acetoxymethyl-4-methylumbelliferone as substrate measured at 5 min intervals over 60 mins in presence of CoCl2 by fluorescence assay.

For assay [14] the target is unchanged. The experiment in a line: Inhibition of Streptococcus pneumoniae Pgda expressed in Escherichia coli BL21 (DE3) cells transformed with pET28bSpPgdA232-431 plasmid at 200 to 1200 uM using acetoxymethyl-4-methylumbelliferone as substrate measured at 5 min intervals over 60 mins in presence of 6 uM ZnCl2 by fluorescence assay.
For assay [15], the target named is T2, Peptidoglycan-N-acetylglucosamine deacetylase. The experiment in a line: Partial mixed inhibition of Streptococcus pneumoniae apo-Pgda using N,N',N\"-triacetyl chitotriose as substrate in presence of ZnCl2 by fluorescamine assay deacetylase assay based Dixon plot analysis.
Assay [16] deals with T3, Peptidoglycan-N-acetylglucosamine deacetylase (Streptococcus pneumoniae (strain ATCC BAA-255 / R6)). Description: Inhibition of Streptococcus pneumoniae Pgda expressed in Escherichia coli BL21 (DE3) cells transformed with pET28bSpPgdA232-431 plasmid at 200 to 1200 uM using acetoxymethyl-4-methylumbelliferone as substrate measured at 5 min intervals over 60 mins in presence of 200 uM ZnCl2 by fluorescence assay.

Assay [17] has the same target. The experiment in a line: Inhibition of Streptococcus pneumoniae Pgda expressed in Escherichia coli BL21 (DE3) cells transformed with pET28bSpPgdA232-431 plasmid at 200 to 1200 uM using acetoxymethyl-4-methylumbelliferone as substrate measured at 5 min intervals over 60 mins in presence of 3 uM ZnCl2 by fluorescence assay.

Regarding `NS(=O)(=O)C[C@H]1[C@H](OCc2ccccc2)O[C@H](CO)[C@@H](O)[C@@H]1O`, the IC50 in [1] and in assay [2] was > 10 mM in each case.
Consider `CC(=O)N[C@H]1[C@H](OCc2ccccc2)O[C@H](CO)[C@@H](O)[C@@H]1O`, for which the result in [3] and in assay [4] was inactive. In addition, the IC50 is > 20 mM in [1] and 11 mM in assay [2].
As for `CC(=O)N[C@H]1[C@H](OCc2ccccc2)O[C@H](CO)[C@@H](O)[C@@H]1N`, the result in assay [3] and in [4] was inactive. The IC50 in [1] and in assay [2] was > 10 mM throughout.
With `O[C@H](CS)[C@H](O)CS`, the inhibition entry in assay [5] and in [6] was “inactive” in each case.
`CC(=O)N[C@H]1[C@H](OCc2ccccc2)O[C@H](CO)[C@@H](O)[C@@H]1N=[N+]=[N-]`: the IC50 in assay [1] and in [2] was > 5 mM each time. The outcome in assay [7] and in [8] was inactive.
Turning to `CS(=O)(=O)N[C@H]1[C@H](OCc2ccccc2)O[C@H](CO)[C@@H](O)[C@@H]1S`, the IC50 in assay [9], in assay [10], in assay [11] and in assay [12] was > 1 mM each time. Further, the result in assay [7] and in [8] was inactive.
Regarding `CC(=S)N[C@H]1[C@H](OCc2ccccc2)O[C@H](CO)[C@@H](O)[C@@H]1O`, the outcome in assay [3] and in assay [4] was inactive. Also, the IC50 in [1] and in [2] was > 10 mM throughout.
With `COP(=O)(O)C[C@H]1[C@H](OCc2ccccc2)O[C@H](COCc2ccccc2)[C@@H](O)[C@@H]1O`, the IC50 in assay [1] and in [2] was > 5 mM in each case. Also, the inhibition entry in [13] is “inactive”.
Consider `CC(=S)N[C@H]1[C@H](OCc2ccccc2)O[C@H](CO)[C@@H](O)[C@@H]1S`, for which the IC50 in assay [9] is > 1 mM; in [10], > 1 mM; in [11], 0.011 mM; in assay [12], 0.14 mM. The inhibition entry in [14] and in assay [16] was “Active” each time. Besides, the Ki in assay [15] was 0.0029 mM. Also, the result in assay [7] and in [8] was inactive. Also, the inhibition entry in [17] was “inactive”.
For the compound `COP(=O)(O)C[C@H]1[C@H](OCc2ccccc2)O[C@H](CO)[C@@H](O)[C@@H]1O`, the IC50 in [1] is > 10 mM; in assay [2], 4.9 mM.
As to `COP(=O)(O)C[C@H]1[C@H](OCc2ccccc2)O[C@H](CO)[C@@H](OCc2ccccc2)[C@@H]1O`, the 50% inhibitory concentration (IC50) in assay [1] and in assay [2] was > 5 mM throughout. Besides, in assay [13], the inhibition entry was “inactive”.
As to `NS(=O)(=O)C[C@H]1[C@H](OCc2ccccc2)O[C@H](CO)[C@@H](OCc2ccccc2)[C@@H]1O`, the IC50 in [1] and in [2] was > 5 mM in each case.
Regarding `CC(=O)N[C@H]1[C@H](OCc2ccccc2)O[C@H](CO)[C@@H](O)[C@@H]1S`, the IC50 was > 8 mM in assay [9], > 8 mM in assay [10], 5 mM in assay [11] and 1.1 mM in assay [12]. The result in [3] and in assay [4] was inactive.
